Results reported in publication doi:10.1101/2022.12.28.522074v1, “Redesigning methionyl-tRNA synthetase for β-methionine activity with adaptive landscape flattening and experiments” (biorxiv, 2022).
Residue numbers refer to the chain shown, from its start. Like-named read-outs stand apart in the source and are kept apart here.

Key:
Assay in all cases: intrinsic fluorescence titration at equilibrium
Type in all cases: binding
[1] = biological target: T1, MetRS M547 (His-tagged monomeric E. coli MetRS) (Escherichia coli, UniProt P00959)
T1 construct: gene metG; M547: C-terminally truncated monomeric fragment (about 547 residues), His-tagged, pET15blpa, expressed in E. coli BLR(DE3)
T1 sequence (P00959 2-548): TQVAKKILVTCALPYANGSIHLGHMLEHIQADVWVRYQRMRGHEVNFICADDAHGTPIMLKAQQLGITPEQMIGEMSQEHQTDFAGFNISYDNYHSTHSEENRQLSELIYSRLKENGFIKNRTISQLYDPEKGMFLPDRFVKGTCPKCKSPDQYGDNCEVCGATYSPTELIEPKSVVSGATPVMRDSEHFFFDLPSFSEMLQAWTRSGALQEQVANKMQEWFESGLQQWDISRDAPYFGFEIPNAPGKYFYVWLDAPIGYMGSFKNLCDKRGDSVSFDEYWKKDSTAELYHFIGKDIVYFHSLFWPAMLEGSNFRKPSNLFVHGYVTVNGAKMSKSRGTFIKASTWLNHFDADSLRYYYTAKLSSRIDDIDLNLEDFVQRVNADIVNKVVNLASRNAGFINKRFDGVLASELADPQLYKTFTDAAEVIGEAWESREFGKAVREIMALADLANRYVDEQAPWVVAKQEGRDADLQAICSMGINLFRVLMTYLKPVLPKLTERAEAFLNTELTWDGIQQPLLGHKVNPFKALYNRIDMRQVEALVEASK
Source text: (§1) intrinsic fluorescence titration at equilibrium on MetRS M547 (His-tagged monomeric E. coli MetRS)

[2] = biological target: T2, MetRS M547 (His-tagged monomeric E. coli MetRS) (Escherichia coli, UniProt P00959, I298C)
T2 construct: gene metG; M547: C-terminally truncated monomeric fragment (about 547 residues), His-tagged, pET15blpa, expressed in E. coli BLR(DE3)
T2 sequence (P00959 2-548 I298C): T1 sequence (P00959 2-548) with I297C
Source text: as §1

[3] = biological target: T3, MetRS M547 (His-tagged monomeric E. coli MetRS) (Escherichia coli, UniProt P00959, I298C/L14C)
T3 construct: gene metG; M547: C-terminally truncated monomeric fragment (about 547 residues), His-tagged, pET15blpa, expressed in E. coli BLR(DE3)
T3 sequence (P00959 2-548 L14C/I298C): T1 sequence (P00959 2-548) with L13C, I297C
Source text: as §1

[4] = biological target: T4, MetRS M547 (His-tagged monomeric E. coli MetRS) (Escherichia coli, UniProt P00959, I298C/L14M)
T4 construct: gene metG; M547: C-terminally truncated monomeric fragment (about 547 residues), His-tagged, pET15blpa, expressed in E. coli BLR(DE3)
T4 sequence (P00959 2-548 L14M/I298C): T1 sequence (P00959 2-548) with L13M, I297C
Source text: as §1

[5] = biological target: T5, MetRS M547 (His-tagged monomeric E. coli MetRS) (Escherichia coli, UniProt P00959, I298C/L14S)
T5 construct: gene metG; M547: C-terminally truncated monomeric fragment (about 547 residues), His-tagged, pET15blpa, expressed in E. coli BLR(DE3)
T5 sequence (P00959 2-548 L14S/I298C): T1 sequence (P00959 2-548) with L13S, I297C
Source text: as §1

CSCC[C@H](N)C(=O)O [α-Met]
Kd ([1]; read-out: Kd(α-Met)): 50 µM
Kd ([2]; read-out: Kd(α-Met)): 190 µM
Kd ([3]; read-out: Kd(α-Met)): 170 µM
Kd ([4]; read-out: Kd(α-Met)): 160 µM
Kd ([5]; read-out: Kd(α-Met)): 170 µM

CSCC[C@H](N)CC(=O)O [β-Met]
Kd ([1]; read-out: Kd(β-Met)): 1200 µM
Kd ([2]; read-out: Kd(β-Met)): 900 µM
Kd ([3]; read-out: Kd(β-Met)): 900 µM
Kd ([4]; read-out: Kd(β-Met)): 900 µM
Kd ([5]; read-out: Kd(β-Met)): 1000 µM
